# Measurements as given in patent US12599136B2, “Substituted isophthalic acid diamides and their use as herbicides” (Bayer Aktiengesellschaft, priority 2020, dated 2026).
# Assays:
# Assay type in all cases: in vivo
# Echinochloa crus-galli [1] = experiment: Pre-emergence herbicidal action against ECHCG; details: 80 g/ha; visual score after 3 weeks vs untreated controls
# Outline: (§1)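 Greenhouse pots of sandy loam held seeds covered with soil, onto which the compound was applied before emergence. An aqueous suspension or emulsion of WP or EC was used at 600 to 800 l/ha with 0.2% wetting agent. Percent damage was judged visually at 3 weeks.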
# Matricaria inodora [2] = experiment: Post-emergence herbicidal action against MATIN; details: 20 g/ha, visual assessment about 3 weeks after treatment
# Outline: (§2)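 A WP or EC formulation diluted in water with 0.2% wetting agent was sprayed at 600 to 800 l/ha onto one-leaf-stage plants grown in sandy loam. About 3 weeks later, action was rated visually in percent, 100% being dead plants.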
# Setaria viridis [3] = experiment: Pre-emergence herbicidal action against SETVI
# Outline: as §1
# Amaranthus retroflexus [4] = experiment: Post-emergence herbicidal action against AMARE; details: visual assessment about 3 weeks after treatment
# Outline: as §2
# Digitaria sanguinalis = experiment: Pre-emergence herbicidal action against DIGSA
# Outline: as §1
# Alopecurus myosuroides [5] = experiment: Pre-emergence herbicidal action against ALOMY; details: 80 g/ha; visual score after 3 weeks vs untreated controls
# Outline: as §1
# Abutilon theophrasti [6] = experiment: Post-emergence herbicidal action against ABUTH
# Outline: as §2
# Viola tricolor [7] = experiment: Pre-emergence herbicidal action against VIOTR
# Outline: as §1
# Alopecurus myosuroides [8] = experiment: Post-emergence herbicidal action against ALOMY
# Outline: as §2
# Setaria viridis [9] = experiment: Post-emergence herbicidal action against SETVI; details: 20 g/ha, visual assessment about 3 weeks after treatment
# Outline: as §2
# Abutilon theophrasti [10] = experiment: Pre-emergence herbicidal action against ABUTH; details: visual score after 3 weeks vs untreated controls
# Outline: as §1
# Matricaria inodora [11] = experiment: Pre-emergence herbicidal action against MATIN; details: visual score after 3 weeks vs untreated controls
# Outline: as §1
# Veronica persica = experiment: Post-emergence herbicidal action against VERPE; details: 20 g/ha, visual assessment about 3 weeks after treatment
# Outline: as §2
# Amaranthus retroflexus [12] = experiment: Pre-emergence herbicidal action against AMARE; details: visual score after 3 weeks vs untreated controls
# Outline: as §1
# Pharbitis purpurea [13] = experiment: Post-emergence herbicidal action against PHBPU; details: 20 g/ha, visual assessment about 3 weeks after treatment
# Outline: as §2
# Echinochloa crus-galli [14] = experiment: Post-emergence herbicidal action against ECHCG; details: 20 g/ha, visual assessment about 3 weeks after treatment
# Outline: as §2
# Polygonum convolvulus = experiment: Pre-emergence herbicidal action against POLCO; details: 80 g/ha
# Outline: as §1
# Pharbitis purpurea [15] = experiment: Pre-emergence herbicidal action against PHBPU; details: 80 g/ha; visual score after 3 weeks vs untreated controls
# From the text: Seeds of monocotyledonous and dicotyledonous weed plants and crop plants are laid out in sandy loam soil in wood-fiber pots and covered with soil. The compounds of the invention, formulated in the form of wettable powders (WP) or as emulsion concentrates (EC), are then applied to the surface of the covering soil in the form of an aqueous suspension or emulsion at a water application rate equivalent to 600 to 800 l/ha, with addition of 0.2% wetting agent. After the treatment, the pots are placed in a greenhouse and kept under good growth conditions for the trial plants. The damage to the test plants is scored visually after a test period of 3 weeks by comparison with untreated controls (herbicidal activity in percent (%): 100% activity=the plants have died, 0% activity=like control plants). […] The tables below illustrate, in an illustrative manner, the post-emergence herbicidal action of the compounds of the invention, the herbicidal activity being stated in percent.
# Viola tricolor [16] = experiment: Post-emergence herbicidal action against VIOTR
# Outline: as §2
# Avena fatua = experiment: Pre-emergence herbicidal action against AVEFA; details: 80 g/ha; visual score after 3 weeks vs untreated controls
# Outline: as §1
# Lolium rigidum = experiment: Pre-emergence herbicidal action against LOLRI; details: 80 g/ha
# Outline: as §1
Structure (SMILES),Pre-emergence action against ECHCG (Echinochloa crus-galli [1]),Post-emergence action against MATIN in % (Matricaria inodora [2]),Pre-emergence action against SETVI (Setaria viridis [3]; 80 g/ha),Post-emergence action against AMARE in % (Amaranthus retroflexus [4]; 5 g/ha),Post-emergence action against AMARE in % (Amaranthus retroflexus [4]; 20 g/ha),Pre-emergence action against ALOMY (Alopecurus myosuroides [5]),Post-emergence action against ABUTH (Abutilon theophrasti [6]; 5 g/ha),Post-emergence action against ABUTH (Abutilon theophrasti [6]; 20 g/ha),Pre-emergence action against VIOTR (Viola tricolor [7]; 20 g/ha),Pre-emergence action against VIOTR (Viola tricolor [7]; 80 g/ha),Post-emergence action against ALOMY (Alopecurus myosuroides [8]; 5 g/ha),Post-emergence action against ALOMY (Alopecurus myosuroides [8]; 20 g/ha),Post-emergence action against SETVI in % (Setaria viridis [9]),Pre-emergence action against ABUTH (Abutilon theophrasti [10]; 20 g/ha),Pre-emergence action against ABUTH (Abutilon theophrasti [10]; 80 g/ha),Pre-emergence action against MATIN (Matricaria inodora [11]; 20 g/ha),Pre-emergence action against MATIN (Matricaria inodora [11]; 80 g/ha),Post-emergence action against VERPE in % (Veronica persica),Pre-emergence action against AMARE (Amaranthus retroflexus [12]; 20 g/ha),Pre-emergence action against AMARE (Amaranthus retroflexus [12]; 80 g/ha),other results
CCN(C(=O)c1c(C(F)(F)F)ccc(C(=O)Nc2nnnn2C)c1Cl)C1CC1 [Example 1-136],90%,90%,100%,100%,100%,100%,90%,100%,100%,100%,80%,90%,100%,90%,100%,90%,100%,80%,90%,100%,Pre-emergence action against SETVI (Setaria viridis [3]; 20 g/ha): 90%; Pre-emergence action against DIGSA (Digitaria sanguinalis; 20 g/ha): 90%; Pre-emergence action against DIGSA (Digitaria sanguinalis; 80 g/ha): 100%; Post-emergence action against PHBPU in % (Pharbitis purpurea [13]): 80%; Post-emergence action against ECHCG in % (Echinochloa crus-galli [14]): 90%; Pre-emergence action against POLCO (Polygonum convolvulus): 80%; Pre-emergence action against PHBPU (Pharbitis purpurea [15]): 90%; Post-emergence action against VIOTR in % (Viola tricolor [16]; 5 g/ha): 100%; Post-emergence action against VIOTR in % (Viola tricolor [16]; 20 g/ha): 100%
CCN(C(=O)c1c(C(F)F)ccc(C(=O)Nc2nnnn2C)c1Cl)C1CC1 [Example 1-167],90%,80%,100%,100%,100%,100%,90%,90%,90%,100%,90%,90%,100%,100%,100%,80%,100%,90%,100%,100%,Pre-emergence action against AVEFA (Avena fatua): 90%; Pre-emergence action against LOLRI (Lolium rigidum): 90%; Post-emergence action against ECHCG in % (Echinochloa crus-galli [14]): 80%; Pre-emergence action against PHBPU (Pharbitis purpurea [15]): 80%; Post-emergence action against VIOTR in % (Viola tricolor [16]; 5 g/ha): 80%; Post-emergence action against VIOTR in % (Viola tricolor [16]; 20 g/ha): 90%
